The target of the data set is ABCB1 (Homo sapiens, UniProt P08183). Nature of the data set: Correlation of ABCB1 expression with drug sensitivity across the NCI-60. How it is done:
Expression levels are measured by real-time quantitative RT-PCR using the LightCycler RNA Amplification SYBR Green kit and a LightCycler machine (Roche Biochemicals, Indianapolis, Ind.). Specific oligonucleotide probes are designed for each of the ABC transporters using DNAStar Primer Select (DNASTAR Inc.), and they may be synthesized at Lofstrand Laboratories (Gaithersburg, Md.). When possible, the amplicons are designed to encompass exon-intron boundaries to avoid amplification of genomic DNA. Since the Syber Green assay detects accumulation of double stranded DNA, primers are selected (from a battery consisting of about 200 primers) that amplified a single product of the correct size.
RT-PCR is carried out on 150 ng total RNA, in the presence of 250 nM specific primers. Following reverse transcription (20 min at 50° C.), the PCR reaction consists of 45 cycles of denaturation (15 sec at 95° C.), annealing (30 sec at 58° C.), and elongation (30 sec at 72° C.). No-template (water) reaction mixtures are prepared as negative controls.
During PCR amplification, fluorescence emission is measured and recorded in real time by the LightCycler. Crossing point values are calculated, using the LightCycler software package, by the Fit Points analysis method, with baseline fluorescence set at 1. The SyberGreen assay measures accumulation of double-stranded products, and the appearance of primer dimers limits quantitation at high cycle numbers. […] The raw results are expressed as number of cycles to reach the crossing point. If the desired product is not detected, the corresponding value is adjusted to crossing points indicating no expression. To assess the contribution of experimental artifacts, selected cell lines are assessed in replicate.
Both sets are available at http://discover.nci.nih.gov. The two are combined to form a joint dataset that includes 1429 compounds.
To determine quantitatively how well the 47 genes cluster the cell lines by their tissues of origin, a statistical method is employed wherein the kappa statistic is used to indicate how well the observed clusters correspond to the nine tissue-of-origin classifications. […] To control the overall false type 1 error rate, both a step-down procedure (Westfall and Young, 1993, Resampling-Based Multiple Testing: Examples and Methods for p-value Adjustment (New York: Wiley)) and a step-up procedure (Reiner et al., 2003, Bioinformatics 19:368-375) were employed to adjust for multiple testing of all 47 genes simultaneously. In the Benjamini-Hochberg procedure the p-values are computed in the standard way by permutation, assuming that all distributions are exchangeable: the number of values in the permuted data with correlations over a threshold, divided by the number of compounds and by the number of permutations. In this analysis, the False Discovery Rate (q-value) at which each compound would be declared was calculated using the step-up procedure for positively correlated test statistics (again true because all correlations being compared are computed against the same ABC gene): in this procedure the first q-value for the largest correlation is the Bonferroni-corrected p-value for that gene; then further q-values are calculated as qj=max(pj*1429/j, qj-1). This procedure limits the expected proportion of false positives in the list 1, . . . , j to at most qj.
ABCB1, sequence (P08183 whole entry): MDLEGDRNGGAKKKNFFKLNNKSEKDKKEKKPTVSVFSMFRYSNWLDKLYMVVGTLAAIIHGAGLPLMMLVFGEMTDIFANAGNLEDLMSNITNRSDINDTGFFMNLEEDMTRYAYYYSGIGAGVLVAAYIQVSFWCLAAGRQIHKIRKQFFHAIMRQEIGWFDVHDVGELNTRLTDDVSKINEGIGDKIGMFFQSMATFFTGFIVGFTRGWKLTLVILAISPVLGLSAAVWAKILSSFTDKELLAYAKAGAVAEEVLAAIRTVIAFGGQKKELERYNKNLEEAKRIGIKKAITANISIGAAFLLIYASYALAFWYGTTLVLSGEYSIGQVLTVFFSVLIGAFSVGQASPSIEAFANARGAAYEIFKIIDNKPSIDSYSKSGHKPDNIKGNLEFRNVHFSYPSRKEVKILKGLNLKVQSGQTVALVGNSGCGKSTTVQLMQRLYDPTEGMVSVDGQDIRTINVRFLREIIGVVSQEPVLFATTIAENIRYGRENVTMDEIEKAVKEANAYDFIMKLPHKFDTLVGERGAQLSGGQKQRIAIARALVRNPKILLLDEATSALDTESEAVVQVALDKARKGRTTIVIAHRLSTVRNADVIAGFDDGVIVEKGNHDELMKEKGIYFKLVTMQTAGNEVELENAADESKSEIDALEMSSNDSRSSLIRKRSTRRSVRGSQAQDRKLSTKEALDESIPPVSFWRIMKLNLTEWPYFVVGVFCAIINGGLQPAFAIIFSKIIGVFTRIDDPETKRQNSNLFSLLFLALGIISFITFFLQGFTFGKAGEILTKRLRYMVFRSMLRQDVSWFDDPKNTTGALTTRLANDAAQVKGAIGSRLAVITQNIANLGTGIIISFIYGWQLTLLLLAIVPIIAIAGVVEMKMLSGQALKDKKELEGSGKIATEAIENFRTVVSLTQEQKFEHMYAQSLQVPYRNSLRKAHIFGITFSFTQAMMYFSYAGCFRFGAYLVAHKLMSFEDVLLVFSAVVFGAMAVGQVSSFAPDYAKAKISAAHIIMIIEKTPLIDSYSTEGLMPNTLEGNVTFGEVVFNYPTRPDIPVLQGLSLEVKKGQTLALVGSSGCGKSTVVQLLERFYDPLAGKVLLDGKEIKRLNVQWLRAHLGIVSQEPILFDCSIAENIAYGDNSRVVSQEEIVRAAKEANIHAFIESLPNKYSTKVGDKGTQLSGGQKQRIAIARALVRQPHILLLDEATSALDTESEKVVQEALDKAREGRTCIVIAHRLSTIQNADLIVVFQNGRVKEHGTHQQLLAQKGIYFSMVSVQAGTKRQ
Take `Cc1ccc2c(c1)-c1c(C#N)c(N)nc(-c3ccc(Cl)cc3)c1CCS2(=O)=O` [NSC691578]: the “Pearson's Correlation Coeff” value amounted to 0.2102.
Same read-out and setting: to `O=C(NO)c1cccc(OCc2ccc(Br)cc2)c1` [NSC692756] belongs 0.4093.
On the same count and under the same terms, to `O=[N+]([O-])C(=C\c1cccs1)/C(=C/c1cccs1)[N+](=O)[O-]` [NSC693131] belongs 0.2788; to `S=C(N/N=C\C=N/NC(=S)N1CCCCC1)N1CCCCC1` [NSC693323], 0.3180; to `c1ccc(/C(=N/Nc2ccccn2)c2cccnn2)cc1` [NSC693623], 0.2952.
On the same count and under the same terms, to `N#Cc1c(Nc2ccccc2)[n+]([O-])c2ccc(Cl)cc2[n+]1[O-]` [NSC693869] belongs 0.2805.
For `Cl.Oc1c(CN2CCCC2)ccc2cccnc12` [NSC693871], the “Correlation of antiproliferative activity with ABCB1 expression” value (shortened to “Correlation … with ABCB1 expression”) is 0.6811 and the “Pearson's Correlation Coeff” value turned out to be 0.6160.
As for `C[n+]1c2ccccc2n2c3ccccc3c(NCCCn3ccnc3)c(C#N)c21.Cc1ccc(S(=O)(=O)[O-])cc1` [NSC694268], the Correlation is recorded as −0.5914.
For the compound `C=C(C=O)c1c2c(nc3ccccc13)C(=O)c1ccccc1C2=O` [NSC694489], the “Pearson's Correlation Coeff” value was found to be 0.3742.
With `O=C1c2ccccc2C(=O)c2c1nc1ccccc1c2-c1cncc(-c2c3c(nc4ccccc24)C(=O)c2ccccc2C3=O)c1` [NSC694490], the “Pearson's Correlation Coeff” value is reported as 0.2438.
The same measure, in the same setting: next, `COc1ccc2oc(S(=O)(=O)N3CC(CCl)c4ccc(N)cc43)cc2c1` (stereo not drawn) [NSC696124]: 0.2104.
Same read-out and setting: to `COc1ccc2oc(S(=O)(=O)N3CC(CCl)c4ccc([N+](=O)[O-])cc43)cc2c1` (stereo not drawn) [NSC696992] belongs 0.2171.
As to `CC(C)=CCCC(C)c1c(O)c(O)c(C)c2nc3ccccc3nc12` (stereo not drawn) [NSC697120], the “Correlation … with ABCB1 expression” value amounted to 0.4435 and the “Pearson's Correlation Coeff” value turned out to be 0.4167.
`CC(C)=CCC[C@@H](C)C1=C(O)C(=O)C(C)=C(N)C1=O` [NSC697125]: the “Correlation … with ABCB1 expression” value stood at 0.5358 and the “Pearson's Correlation Coeff” value is 0.5604.
In the case of `CNC1=C(C)C(=O)C(O)=C([C@H](C)CCC=C(C)C)C1=O` [NSC697128], the “Correlation … with ABCB1 expression” value is given as 0.4349 and the “Pearson's Correlation Coeff” value was 0.4568.
With `CC(C)=CCC[C@@H](C)C1=C(O)C(Nc2ccccc2)=C(C)C(=O)C1=O` [NSC697129], the “Correlation … with ABCB1 expression” value came to 0.4663 and the “Pearson's Correlation Coeff” value is on record as 0.4854.
For `CC(C)=CCC[C@@H](C)c1c2[nH]c3ccccc3sc-2c(C)c(=O)c1=O` [NSC697130], in that order: 0.3925 and 0.4582.
As for `CC(C)=CCC[C@@H](C)C1=C(Nc2ccccc2F)C(=O)C(C)=C(O)C1=O` [NSC697131], the “Correlation … with ABCB1 expression” value worked out at 0.3522 and the “Pearson's Correlation Coeff” value is listed as 0.3514.
As to `CC(C)=CCC[C@@H](C)c1c2ncc[nH]c-2c(C)c(=O)c1O` [NSC697135], the “Correlation … with ABCB1 expression” value was 0.4249 and the “Pearson's Correlation Coeff” value turned out to be 0.4052.
In the case of `CC(C)=CCC[C@@H](C)C1=C(O)C(=O)C(C)=C(NC(C)c2ccccc2)C1=O` (stereo partly drawn) [NSC697137], the “Correlation … with ABCB1 expression” value stood at 0.4295 and the “Pearson's Correlation Coeff” value is 0.3828.
As for `CC(C)=CCC[C@@H](C)C1=C(Nc2ccccc2Cl)C(O)=C(C)C(=O)C1=O` [NSC697138], the “Pearson's Correlation Coeff” value worked out at 0.3551.
As for `Oc1ccc2ccccc2c1-c1nnc(CCCCCCCCc2nnc(-c3c(O)ccc4ccccc34)o2)o1` [NSC697189], the “Pearson's Correlation Coeff” value was found to be 0.2621.
On the same count and under the same terms, next, `CC1(C)C2CC1C(C(O)C1c3cc(-c4ccccn4)ncc3C3CC1C3(C)C)c1cc(-c3ccccn3)ncc12` (stereo not drawn) [NSC697653]: 0.1718; `CC(=O)O[C@H]1C#C/C=C\C#CC[C@@H]2C(=O)N(C(=O)OC(C)(C)C)[C@@H]12` [NSC697686]: 0.2297.
`CCNc1nnc(-c2ccccc2Nc2ccccc2-c2nnc(NCC)s2)s1` [NSC698459]: the “Pearson's Correlation Coeff” value is 0.3095.
For `CN(C)c1nc(N(C)C)nc(N(C)C)n1` [NSC 13875], the “Correlation … with ABCB1 expression” value was 0.4856.
The same measure, in the same setting: to `Oc1c(CN2CCN(c3ccccc3)CC2)cc(Br)c2cccnc12` [NSC 117028] belongs 0.3579; to `C=C(C)[C@@H]1CCc2c(O)c(O)c(=O)cc(C)c2C1` [NSC 310618], 0.3698.
`O=C(O)Cc1cccc2c(=O)cc(-c3ccccc3)oc12` [NSC 347512]: the “Correlation … with ABCB1 expression” value was found to be 0.4109.
`Br.CCN(CC)CC[n+]1ccc2c(C)c3[nH]c4ccccc4c3c(C)c2c1.[Br-]` [NSC 353076] yielded a Correlation of −0.7983.
Still for that read-out and setting: to `COc1cc2c(c(O)c1O)-c1ccc(OC)c(=O)cc1C(NC(C)=O)CC2` (stereo not drawn) [NSC 354975] belongs −0.6043.
Consider `O=C(/C=C/c1ccc(Cl)cc1)c1ccccc(=O)c1O` [NSC 356777], for which the “Correlation … with ABCB1 expression” value is recorded as 0.4021.
The compound `CCN(CC)CC[n+]1ccc2c(C)c3[nH]c4ccccc4c3c(C)c2c1` [NSC 359449] returned a Correlation of −0.7108.
As for `Cc1ccc(S(=O)(=O)O)cc1.N/C(=N\N=C/c1cc(Br)cc(Br)c1O)NO` [NSC 371168], the “Correlation … with ABCB1 expression” value came to 0.3643.
In turn, `COc1c(OC(C)=O)c(OC(C)=O)cc2c1-c1ccc(SC)c(=O)cc1C(NC(C)=O)CC2` (stereo not drawn) [NSC 374980] registered a Correlation of −0.5590.
Regarding `Nc1nc(N)c2nc(CNc3ccc(C(=O)NC(CCC(=O)O)C(=O)O)cc3F)cnc2n1.O=C(O)C(F)(F)F` (stereo not drawn) [NSC 607301], the “Correlation … with ABCB1 expression” value is reported as 0.3523.
On the same count and under the same terms, to `CCOC(=O)NC1CC2CCC1(OC)C=C2C` (stereo not drawn) [NSC 617278] belongs 0.424; to `COc1ccc2nc3c(C(=O)NCCN(C)C)cccc3cc2c1.Cl` [NSC 617959], 0.3586.
Turning to `Cc1cc(C(=O)NCCN(C)C)c2nc3ccccc3cc2c1.Cl` [NSC 617961], the “Correlation … with ABCB1 expression” value turned out to be 0.423.
Regarding `Cc1ccc2nc3c(C(=O)NCCN(C)C)cccc3cc2c1.Cl` [NSC 617963], the “Correlation … with ABCB1 expression” value turned out to be 0.5317.
On the same count and under the same terms, to `CN(C)CCNC(=O)c1cc(Cl)cc2cc3ccccc3nc12.Cl` [NSC 617966] belongs 0.3715.
The compound `CN(C)c1ccc(/C=C2\C[N+](C)(C)C/C(=C\c3ccc(N(C)C)cc3)C2=O)cc1.[I-]` [NSC 618757] showed a Correlation of −0.6081.
As to `CSc1nc2nn(Cc3ccccc3)cc2c(=O)[nH]1` [NSC 622927], the “Correlation … with ABCB1 expression” value was 0.4001.
On to `CNC(=O)C(C)C1CCC2(C)C=CC(=O)C(C)=C2C1O` (stereo not drawn) [NSC 623069], for which the “Correlation … with ABCB1 expression” value is recorded as 0.459.
As to `O=C(N[C@@H](c1ccccc1)[C@@H](O)C(=O)OCc1ccc2c(c1)OCO2)c1ccccc1` [NSC 625349], the “Correlation … with ABCB1 expression” value came out at 0.3935.
Same read-out and setting: to `O=[Se](=O)c1ccccc1.O=[Se](=O)c1ccccc1.[Cu]` [NSC 626670] belongs 0.4177.
On the same count and under the same terms, next, `Cc1cc(C)c(C2=NO[C@@H]3[C@H]2C(=O)C=C2N(Cc4ccccc4)CCO[C@@]23O)c(C)c1` [NSC 627025]: 0.3511.
On the same count and under the same terms, next, `CSc1sc(=S)sc1SC` [NSC 627450]: 0.4454; `O=C1CSc2sc(=S)sc2S1` [NSC 627451]: 0.3894.
Regarding `O=C1Sc2sc(=S)sc2SC1c1ccccc1` (stereo not drawn) [NSC 627452], the “Correlation … with ABCB1 expression” value was found to be 0.3534.
Compound `CCC(C)SC1SCC2C(=O)N(C)C3(CC3C)C(=O)OCC(NC(=O)c3nc4ccccc4cc3O)C(=O)NC(C)C(=O)N(C)C1C(=O)N(C)C1(CC1C)C(=O)OCC(NC(=O)c1nc3ccccc3cc1O)C(=O)NC(C)C(=O)N2C` (stereo not drawn) [NSC 630678] registered a Correlation of −0.7029.

These data come from patent publication US20080214606A1, “Methods for the Identification and Use of Compounds Suitable for the Treatment of Drug Resistant Cancer Cells” (The Government of the United States of America as …, priority 2004, published 2008).
